Laboratory results from US10316077B2, “Cell-penetrating ATF5 polypeptides and uses thereof” (Sapience Therapeutics, Inc., priority 2017, dated 2019).
Several values for one entry are separate records, joined by “and”; a condition that tells them apart may be missing. Equal values may be shown once. Ends that are not written are not given here.

Experiments:
[1] = system: U87 cells; test: Apo-ONE caspase 3/7 activation assay in U87 glioblastoma cells; type: cell-based
Experimental: Activation of caspase enzymes occurs in the early stages of apoptosis. In this Example, we investigated the effect on caspase activation of ST-3 in combination with the Bcl-2 inhibitor ABT-263 (Navitoclax). U87 cells were prepared as described in Example 2 for T98G cells. Lyophilized ST-3 was freshly reconstituted in Tris Buffer at a concentration of 5 mg/mL, and adjusted to a working concentration of 200 μM. ST-3 was added to cells in 100 μL Tris Buffer at a final concentration range of 0-20 μM. […] Plates were incubated at ambient temperature in the dark for 1.5-2 hours. Fluorescence was recorded by Eppendorf PlateReader AF2200 at Ex. 485 nm/Em. 527 nm.

[2] = system: U87 cells; test: Annexin V/PI cell viability assay in U87 cells; type: cell-based; details: 48-hour incubation, read-out: EC50 (μM) of ATF-5-Derived Polypeptides in Cancer Cells, U87
Experimental: (§1) ST-3, reconstituted at a concentration of 10 mg/mL in 20 mM His, pH 7.5, was added to each well at a volume of 50 μL to a final concentration range of 0-80 μM. Cells were incubated with ST-3 for 48 hours at 37° C. Cell viability was quantified by flow cytometry using an Annexin V FITC apoptosis detection kit from Abcam. Briefly, cells were washed with PBS and resuspended in 1× assay buffer containing Annexin V FITC and propidium iodide (PI). Annexin V detects apoptotic cells, and PI stains dead cells. After staining, apoptotic cells show green fluorescence, dead cells show red and green fluorescence, and live cells show little or no fluorescence. Cells were selected for analysis based on forward scatter (FSC) vs. side scatter (SSC), and analyzed by BD Accuri C6 Plus flow cytometer to detect Annexin V-FITC binding (Ex=488 nm; Em=530 nm) using FITC signal detector and PI staining by the phycoerythrin emission signal detector. Percentage of Annexin V^low and PI^low were quantified and presented as % Viability.
(§2) Alternatively, adherent U251 or U87 cells were set at a density of 3.5×10^3 cells/well in 150 μL of media on day −1. On day 0, media was removed and replenished with 150 μL of fresh media, and cells were treated with ST-3 as described. […] Cell viability was determined as described above for suspension cells.

[3] = system: U251 GBM cells; test: Annexin V/PI cell viability assay in U251 cells; type: cell-based; details: 48-hour incubation, read-out: EC50 (μM) of ATF-5-Derived Polypeptides in Cancer Cells, U251
Experimental: as §1, §2

[4] = system: T98G GBM cells; test: CellTiter-Blue cell viability assay in T98G cells; details: read-out: EC50 (μM) of ATF-5-Derived Polypeptides in Cancer Cells, T98G, 72 hours
Experimental: (§3) T98G cells were set at a density of 2×10^3/well in 200 μL of RPMI+1.5% fetal bovine serum (FBS) in black-walled Nunc™ MicroWell™ 96-Well Optical-Bottom Plates with Polymer Base.
(§4) On day −1, adherent T98G cells were washed of complete media (RPMI+10% FBS) with 6 mL Dulbecco's Phosphate Buffered Saline (DPBS), and dissociated from T25 Nunclon™ Delta flask with 2 mL trypsin at room temperature. Trypsin was quenched with 6 mL complete media, and cells were resuspended in fresh complete media at a concentration of 1×10^6 cells/mL. Cells were then adjusted to a concentration of 1×10^4 cells/mL in RPMI+1.5% FBS, and 200 μL of culture was added to each well (B2 to G11) of a Nunc™ 96-well Flat Bottom Black Polystyrol Clear Bottom plate to a final cell concentration of 2×10^3 cells/well. Cells were set in an incubator at 37° C. and 5% CO2 with humidity for 24 hours.
(§5) On day 0, 100 μL of media was removed from each well.
(§6) On day 3, media was removed from wells, and wells were washed with 100 μL DPBS. Cells were resuspended in 100 μL RPMI+10% FBS. CellTiter-Blue® Cell Viability Assay (Promega Corp., Madison, Wis.) was performed by adding 20 μL of CellTiter-Blue® reagent to each well. Plates were returned to the incubator at 37° C. and 5% CO2 with humidity for 1.5-2 hours. CellTiter-Blue® assay results were read by Eppendorf PlateReader AF2200 at Ex. 535 nm/Em. 595 nm according to manufacturer's instructions. Data is presented as % Viability. Cell viability was calculated as (Sample value/Buffer control value)×100. EC50 values were calculated using GraphPad Prism v.7 XML.

[5] = system: T98G GBM cells
Experimental: as §3, §4, §5, §6

[6] = system: HL60 promyelocytic leukemia (PML) cells; test: Annexin V/PI cell viability assay in HL60 cells; type: cell-based, human; details: for EC50: HL60, Annexin V/PI viability, 48 hours, read-out: EC50 (μM) of ATF-5-Derived Polypeptides in Cancer Cells, HL60
Experimental: as §1

[7] = system: neoplastic cells; details: systemically administered; cited from earlier work

| Compound | EC50 [2] [µM] | EC50 [3] [µM] | EC50 [4] [µM] | EC50 [6] [µM] | also measured |
| --- | --- | --- | --- | --- | --- |
| CC1(C)CCC(c2ccc(Cl)cc2)=C(CN2CCN(c3ccc(C(=O)NS(=O)(=O)c4ccc(N[C@H](CCN5CCOCC5)CSc5ccccc5)c(S(=O)(=O)C(F)(F)F)c4)cc3)CC2)C1 [ABT-263, ABT-263 (Navitoclax)] |  |  |  |  | % Caspase Activation, ABT-263 alone ([1]; ST-3 0 μM, ABT-263 0.5 μM, % of positive control): 15.5% and 15.32% |
| RQIKIWFQNRRMKWKKLEGECQGLEARNRELKERAESV [ST-3] | 45 | 42 | 69 | 16 | cytotoxic activity compared to ST-2 [5]: unexpectedly superior cytotoxic activity over ST-2 |
| RQIKIWFQNRRMKWKKLEQRAEELARENEELLEKEAEELEQENAELEGECQGLEARNRELRERAESV [ST-2] | > 200 | > 200 | > 200 | > 200 | blood-brain barrier crossing, cell entry and apoptosis of neoplastic cells [7]: can cross the blood-brain barrier, enter cells, and selectively trigger the apoptotic death of neoplastic cells |
| CN[C@@H]1C[C@H]2O[C@@](C)([C@@H]1OC)n1c3ccccc3c3c4c(c5c6ccccc6n2c5c31)C(=O)NC4 [Positive Control, staurosporine] |  |  |  |  | % Caspase Activation, positive control ([1]; staurosporine 10 μM, reference set to 100): 100% |
| YGRKKRRQRRLEGECQGLEARNRELKERAESV [ATF5 Polypeptide with Tat CPP] |  |  |  |  | cytotoxic activity ([6]; HL-60 cell viability assay): has cytotoxic activity |
